From patent US20190038602A1, “GRANZYME B INHIBITOR FORMULATIONS AND METHODS FOR THE TREATMENT OF BURNS” (viDA Therapeutics, Inc., priority 2016, published 2019) come the findings set out here.

Each structure is given as a SMILES string. Several values for one entry are separate records, joined by “and”; a condition that tells them apart may be missing. Identical values can stand only once.

The test system of data set [1] is burn wound. Description: Burn wound healing in mice (deep partial thickness thermal injury, degree IIb). The class given is in vivo. The method, then:
In the studies described herein, all mice were initially anesthetized using mixture of isoflurane/oxygen (Iso about 2-2.5%/oxygen flow rate of about 1.5-2 L/min) in an induction chamber, then moved to a Baines system with a 1-2.5%/1.5-2 L/min flow rate. During anesthesia the mice were placed on a warming pad with a nose cone over the mice to maintain the anesthetic state. The toe nails were trimmed with clippers. A metal rod (25 g, 1 cm in diameter) was heated to 95-100° C. by submersion in boiling water for 3-5 min. The rod was immediately positioned vertically for 6 seconds without additional pressure on the dorsal skin of mice that had also been depilated 3 days before wounding. This procedure induces a deep partial thickness thermal injury (degree IIb). The severity of the thermal injury is classified according to Exp Dermatol. 2010; 19(9):777-783.

A short description of data set [2]: Compound A concentration at saturation in penetration enhancer vehicles (UPLC). Format: physicochemical. As to the method:
Compound A was dissolved at saturation in various vehicles containing PE in pH 5 acetate buffer (see Table 2). An excess amount of Compound A and the corresponding vehicle were mixed by rotary mixer at room temperature for 24 hours and subsequent filtration through 0.22 μm cellulose acetate membrane. Concentration of Compound A was measured by UPLC.

The nature of data set [3]: Ex vivo pig ear skin permeation, Franz Diffusion Cell System. Format: in vitro ADME. The conditions noted are these: for Compound A in tape-stripped skin samples, Average: n=3; for Skin concentration (Compound A in tape-stripped skin, single replicates): listed as Compound A. As to the method:
[…] Formulations were delivered to the skin over a period of 6 hours and drug permeation was assessed by UPLC-MS/MS analysis of tape-stripped skin and receptor fluid. Receptor fluid samples were collected for analysis at 3 and 6 hour time points.
Compound A permeation through skin was assessed ex vivo by using pig ear skin and a Franz Diffusion Cell System (PermeGear®).
Fresh pig ears were obtained from female Yorkshire/Landrace crosses, between 3.5-5 months old, at Jack Bell Research Centre, Vancouver. Immediately after surgery, pig ears were removed and placed in a double Ziploc® bag and stored at −20° C. freezer until shipment to laboratory site on ice via courier the next day. Upon arrival at the site, pig ears were stored in a segregated container, labeled with harvest and shipment date, in −20° C. freezer and were used prior to their expiry date of 5 weeks. Pig skin was prepared according to “Preparation of Pig Skin Samples for ex vivo Permeation Assays.” Briefly, one day prior to the study, frozen ears were thawed washed with deionized water and blotted dry. After trimming off hair, surface skin was separated from cartilage and fat, and hole-punched into coin shape samples to fit dimensions of Franz cells. Pig ear samples were stored in a petri dish, sealed with parafilm tape, in double Ziploc® bags at −20° C. overnight prior to the study on the following day.
Set up of the diffusion cell system was performed according to “Setup, Operation and Cleaning Procedure for Franz Diffusion Cell System.” Prior to application of formulations, skin integrity of each skin sample was determined by measuring the electrical resistance. The electrical resistance was measured with a Model 878B Dual Display LCR Meter (BK Precision®) connected to two stainless steel electrodes, using a setting of 1 KHz. Measurements were taken at least 30 minutes after mounting skin samples to ensure temperature and humidity equilibration. The donor and receptor chamber were filled with 300 μL and 5 mL of pH 7.4 phosphate buffered saline (PBS), respectively, and both electrodes were immersed in solution without touching the skin membrane. Any skin membrane giving an electrical resistance below 4.0 kΩ was discarded and replaced.
Throughout the permeation assay, all cells were maintained at 32° C. and sink condition was maintained in the receptor fluid. Receptor chambers were filled with 4.75 mL of receptor fluid (pH 7.4 PBS) and were kept stirring for the entire duration of the experiment. Skin samples were mounted above the receptor chamber, in direct contact with the receptor fluid, and then donor chambers were mounted above the skin. Any air bubbles between the skin tissue and the receptor fluid were carefully removed prior to application of formulations. The appropriate formulation (300 μL) was added to the donor chamber and the opening of the cell was covered with Parafilm® to prevent evaporation of the test article. Three skin samples per formulation (N) were tested. Three components (receptor fluid, applied formulation and skin samples) were sampled for subsequent analysis. Receptor fluid was sampled at 3 and 6 hours (without volume replacement) and stored at −20° C. until analysis. At the end of the experiment, the applied formulation was recovered from the donor chamber and recorded as the unabsorbed dose. The skin was then blotted dry with a Kimwipe® and tape-stripped skin (12 tape strips) was obtained. The first tape strip (3M scotch tape) was used to remove excess of formulation remaining on the skin and was discarded. Then a total of 11 tape strips were used to partially remove the stratum corneum. These tape strips were kept in labeled glass vial. Then using a hole-puncher the section of skin exposed to the formulation was removed and the corresponding weight of the skin sample was recorded. All samples were stored at −20° C. until analysis. […]

A short description of data set [4]: Concentration of Compound A in skin after application of gel (FIG. 3B). To be noted: 50 μL gel, 0.35% w/v Compound A. The method, then: FIG. 3A is an image of skin to which a volume (50 μL) of a representative formulation of the invention that includes Compound A was applied. The applied formulation (gel) includes Compound A at a concentration of 0.35% w/v in a vehicle containing propylene glycol (20% w/w), Carbopol 940 (0.5% w/v), methyl paraben (0.2% w/w), propyl paraben (0.02% w/w) and acetate buffer pH 5 (QS). Triethylamine was used to adjust the final formulation pH to 5-6.
FIG. 3B compares concentration of Compound A (μg/μL) in the skin at 4, 6, and 24 hours after application of a volume (50 μL) of a representative formulation of the invention that includes Compound A as described above for FIG. 3A.
FIG. 3A is an image of skin to which a volume (50 μL) of a representative formulation of the invention that includes Compound A was applied. FIG. 3B compares concentration of Compound A (μg/μL) in the skin at 4, 6, and 24 hours after application of a volume (50 μL) of a representative formulation of the invention that includes Compound A as described above for FIG. 3A.

Take `CC[C@H](C)[C@H](NC(=O)CCC(=O)O)C(=O)NCC(=O)N1C(=O)N(C2CCCCC2)C[C@H]1C(=O)NCc1nn[nH]n1` [Compound 1A, 4-(((2S,3S)-1-((2-((S)-5-(((2H-tetrazol-5-yl)methyl)carbamoyl)-3-cyclohexyl-2-oxoimidazolidin-1-yl)-2-oxoethyl)amino)-3-methyl-1-oxopentan-2-yl)amino)-4-oxobutanoic acid]: in data set [1] (3.6 mg/mL gel, pH 6.0 with triethanolamine, compared with Compound 1 gel (triethylamine)), the “In vivo performance of gel” value was “performance comparable to that of another representative formulation”.
`CC[C@H](C)[C@H](NC(=O)CCC(=O)O)C(=O)NCC(=O)N1C(=O)N(C2CCCCC2)C[C@H]1C(=O)NCc1nn[nH]n1` [Compound C2, 4-(((2S,3S)-1-((2-((S)-5-(((2H-tetrazol-5-yl)methyl)carbamoyl)-3-cyclohexyl-2-oxoimidazolidin-1-yl)-2-oxoethyl)amino)-3-methyl-1-oxopentan-2-yl)amino)-4-oxobutanoic acid]: the “Compound A Concentration in Formulation” value in data set [2] (Water + 20% N-methyl-2-pyrollidone (NMP)) was 1.13 mg/mL; in data set [2] (pH5 acetate buffer + 10% Transcutol (TC)), 2.99 mg/mL; in data set [2] (pH5 acetate buffer + 10% dimethylisosorbide (DMI)), 3.18 mg/mL; in data set [2] (pH5 acetate buffer + 10% urea), 3.04 mg/mL; in data set [2] (pH5 acetate buffer + 15% TWEEN 80) it was 1.56 mg/mL; in data set [2] (pH5 acetate buffer + 20% propylene glycol (PG), room temperature 24 hours), 2.82 mg/mL. The “Compound A in tape-stripped skin samples, Average” value stood at 4846 ng/g in data set [3] (Water + 20% N-methyl-2-pyrollidone (NMP), 6 hour exposure); 8833 ng/g in data set [3] (pH5 acetate buffer + 10% Dimethyl Isosorbide (DMI), 6 hour exposure); 5461 ng/g in data set [3] (pH5 acetate buffer + 10% Transcutol (TC), 6 hour exposure); 9317 ng/g in data set [3] (pH5 acetate buffer + 10% Urea, 6 hour exposure); 3782 ng/g in data set [3] (pH5 acetate buffer + 15% Tween 80, 6 hour exposure); 7104 ng/g in data set [3] (pH5 acetate buffer + 20% Propylene Glycol (PG), 6 hour exposure). The “Skin concentration (Compound A in tape-stripped skin, single replicates)” value is 4313 ng/g and 4985 ng/g and 5241 ng/g in data set [3] (Water + 20% NMP, 6 h exposure); 13975 ng/g and 6214 ng/g and 6311 ng/g in data set [3] (pH5 acetate buffer + 10% DMI, 6 h exposure); 5869 ng/g and 8886 ng/g and 1629 ng/g in data set [3] (pH5 acetate buffer + 10% TC, 6 h exposure); 5588 ng/g and 19422 ng/g and 2943 ng/g in data set [3] (pH5 acetate buffer + 10% Urea, 6 h exposure); 4937 ng/g and 1968 ng/g and 4442 ng/g in data set [3] (pH5 acetate buffer + 15% Tw80, 6 h exposure); 4785 ng/g and 10012 ng/g and 6515 ng/g and 4784 ng/g in data set [3] (pH5 acetate buffer + 20% PG, 6 h exposure). In data set [3] (tape-stripped skin, 6 hours, span over the six formulations), this molecule had an Average skin concentrations of 3700 to 9300 ng/g. For the same molecule, the “Stability and retention in skin (concentration at 4, 6 and 24 hours)” value in data set [4] was “stable and effectively retained in the skin”. Also, the “Burn wound healing (percent of original wound size, falling of scabs)” value in data set [1] (subcutaneous injection, solution in PBS 0.56 mg/ml, vs saline, Day 0 to Day 30) is “attenuation of initial burn expansion in the zone of stasis and improved burn wound healing”; in data set [1] (topical gel vs saline control), “attenuation of initial burn expansion in the zone of stasis and improved burn wound healing”. The “Quality of healed wound (epidermal thickness, decorin level, collagen level)” value in data set [1] (topical gel) is reported as “improves quality of healed wound”. Further, in data set [1] (topical gel vs vehicle control, repeated study, Day 0 to Day 24), the “Burn wound healing (percent of original wound size)” value was “attenuation of initial burn expansion in the zone of stasis and improved burn wound healing”.
